# Results: publication PMC11672637, “7-O-Carboxylic Acid-Substituted 3-O-Alkyl Difluoroquercetin; An Aztreonam-Potentiating Agent Against Carbapenemase-Producing Pseudomonas aeruginosa Through Simultaneous Inhibition of Metallo-β-Lactamase and Efflux Pump” (Antibiotics, 2024)
# Experiments:
# [1] = test system: NDM-1-Producing P. aeruginosa (PA-017, blaNDM); test: MIC / checkerboard with ATM; type: cell-based; parameters: key to Susceptibility category: S: susceptible; I: intermediate; R: resistant; settings: PA-017; for MIC: Pseudomonas aeruginosa, compound alone, read-out: MIC, Cmpd
# AmpC = test: β-lactamase inhibition assay (nitrocefin); type: biochemical; settings: nitrocefin substrate; read-out: BLi, IC50 AmpC
# Experimental: (§1) Recombinant AmpC, OXA-48 (residues 23–265) and VIM-2 (residues 27–266) were prepared from Escherichia coli based on previously established protocols. KPC-2 and NDM-1 are commercially available from LifeSpan Biosciences, Inc., Seattle, WA, USA (LS-G26598) and RayBiotech, Inc., Peachtree Corners, GA, USA (230-00554), respectively. For β-lactamase inhibition assay, in a 96-well plate, 70–0.1 μM (in PBS) of the synthesized compounds (1~14) (100 μL) were mixed with diluted β-lactamase stock (2% DMSO in 200 μL). In a separate 96-well plate, a substrate of AmpC, KPC-2, OXA-48, and VIM-2 (nitrocefin) and NDM-1 (imipenem) were added into each well (final concentrations of 70 μM for nitrocefin and 100 μM for imipenem). After incubation at 37 °C for 20 min, the mixture of the synthesized compounds (1~14) and β-lactamase in one plate was added to the substrate in the other plate. Enzymatic hydrolysis of the substrate was then monitored by a Cytation 5 imaging multimode reader (BioTek Instruments Inc., Winooski, VT, USA) at 486 nm and 300 nm for nitrocefin and imipenem, respectively, for 15 min. The rates of hydrolysis in the presence of the inhibitors were determined when the reaction rate plateaued. Comparison of the enzymatic hydrolysis rates in the presence and the absence of inhibitors (100%) provided the percentage of enzyme inhibition at each concentration of the synthesized compounds. The IC50 values were obtained after non-linear regression (sigmoidal dose-responses) by GraphPad Prism 5 (GraphPad Software, Boston, MA, USA).
# VIM-2 = target: T1, VIM-2 (Escherichia coli, UniProt Q5U7L7); test: β-lactamase inhibition assay (nitrocefin); type: biochemical; settings: nitrocefin substrate; read-out: BLi, IC50 VIM-2
# T1 construct: VIM-2 (residues 27–266); made in house; host or cells: Escherichia coli
# Experimental: as §1
# KPC-2 = target: T2, KPC-2 (Klebsiella pneumoniae, UniProt Q9F663); test: β-lactamase inhibition assay (nitrocefin); type: biochemical; settings: nitrocefin substrate; read-out: BLi, IC50 KPC-2
# T2 construct: purchased LifeSpan Biosciences, Inc. LS-G26598
# Experimental: as §1
# OXA-48 = target: T3, OXA-48 (Klebsiella pneumoniae, UniProt Q6XEC0); test: β-lactamase inhibition assay (nitrocefin); type: biochemical; settings: nitrocefin substrate; read-out: BLi, IC50 OXA-48
# T3 construct: OXA-48 (residues 23–265); made in house; host or cells: Escherichia coli
# Experimental: as §1
# [2] = test system: efflux pump activity in P. aeruginosa (PA-017, blaNDM); test: EtBr accumulation, inhibition of efflux pump activity; type: cell-based; settings: EtBr fluorescence compared with positive control CCCP
# Experimental: The NDM-producing P. aeruginosa clinical isolate (PA-017, blaNDM) (5 mL, LB medium) was grown to reach the mid-log phase. After centrifugation at 3500 rpm for 15 min, the bacterial pellet was washed twice with PBS and resuspended to OD600 = 0.3 in PBS. To each well of a flat-bottomed black 96-well plate, 182 µL of the bacterial suspension, 4 µL of glucose [final concentration = 0.4% (w/v)], 4 µL of the synthesized compounds or positive control CCCP, and 10 µL of EtBr (final concentration = 1 µg/mL) were added. The plate was incubated at 37 °C, and fluorescence emission from EtBr (λex 480 nm/λem 630 nm) was recorded every 2 min (for 60 min) using a Cytation 5 imaging multi-mode reader (BioTek Instruments, Inc., Winooski, VT, USA).
# NDM-1 = target: T4, NDM-1 (Klebsiella pneumoniae, UniProt C7C422); test: β-lactamase inhibition assay (imipenem); type: biochemical; settings: imipenem substrate; read-out: BLi, IC50 NDM-1
# T4 construct: purchased RayBiotech, Inc. 230-00554
# Experimental: as §1
# PA-027, blaIMP = test: MIC / checkerboard with ATM; type: cell-based, P. aeruginosa; parameters: key to Susceptibility category: S: susceptible; I: intermediate; R: resistant; settings: PA-027; Table S2
# PA-033, blaNDM = test: MIC / checkerboard with ATM; type: cell-based, P. aeruginosa; parameters: key to Susceptibility category: S: susceptible; I: intermediate; R: resistant; settings: PA-033; Table S2
# PA-034, blaNDM = test: MIC / checkerboard with ATM; type: cell-based, P. aeruginosa; parameters: key to Susceptibility category: S: susceptible; I: intermediate; R: resistant; settings: PA-034; Table S2
# PA-009, blaGES = test: MIC / checkerboard with ATM; type: cell-based, P. aeruginosa; parameters: key to Susceptibility category: S: susceptible; I: intermediate; R: resistant; settings: PA-009; Table S2
# PA-039, blaNDM = test: MIC / checkerboard with ATM; type: cell-based, P. aeruginosa; parameters: key to Susceptibility category: S: susceptible; I: intermediate; R: resistant; settings: PA-039; Table S2
# PA-041, blaNDM = test: MIC / checkerboard with ATM; type: cell-based, P. aeruginosa; parameters: key to Susceptibility category: S: susceptible; I: intermediate; R: resistant; settings: PA-041; Table S2
# PA-002, blaIMP = test: MIC / checkerboard with ATM; type: cell-based, P. aeruginosa; parameters: key to Susceptibility category: S: susceptible; I: intermediate; R: resistant; settings: PA-002, Table S2
# PA-044, blaNDM = test: MIC / checkerboard with ATM; type: cell-based, P. aeruginosa; parameters: key to Susceptibility category: S: susceptible; I: intermediate; R: resistant; settings: PA-044; Table S2
# PA-038, blaNDM = test: MIC / checkerboard with ATM; type: cell-based, P. aeruginosa; parameters: key to Susceptibility category: S: susceptible; I: intermediate; R: resistant; settings: PA-038; Table S2
# PA-031, blaNDM = test: MIC / checkerboard with ATM; type: cell-based, P. aeruginosa; parameters: key to Susceptibility category: S: susceptible; I: intermediate; R: resistant; settings: PA-031; Table S2
# PA-003, blaVIM = test: MIC / checkerboard with ATM; type: cell-based, P. aeruginosa; parameters: key to Susceptibility category: S: susceptible; I: intermediate; R: resistant; settings: PA-003, Table S2
# PA-032, blaIMP = test: MIC / checkerboard with ATM; type: cell-based, P. aeruginosa; parameters: key to Susceptibility category: S: susceptible; I: intermediate; R: resistant; settings: PA-032, Table S2
# PA-030, blaIMP = test: MIC / checkerboard with ATM; type: cell-based, P. aeruginosa; parameters: key to Susceptibility category: S: susceptible; I: intermediate; R: resistant; settings: PA-030; Table S2
# PA-028, blaNDM = test: MIC / checkerboard with ATM; type: cell-based, P. aeruginosa; parameters: key to Susceptibility category: S: susceptible; I: intermediate; R: resistant; settings: PA-028; Table S2
# PA-037, blaIMP/NDM = test: MIC / checkerboard with ATM; type: cell-based, P. aeruginosa; parameters: key to Susceptibility category: S: susceptible; I: intermediate; R: resistant; settings: PA-037; Table S2
# PA-026, blaNDM = test: MIC / checkerboard with ATM; type: cell-based, P. aeruginosa; parameters: key to Susceptibility category: S: susceptible; I: intermediate; R: resistant; settings: PA-026, Table S2
# PA-042, blaIMP/NDM = test: MIC / checkerboard with ATM; type: cell-based, P. aeruginosa; parameters: key to Susceptibility category: S: susceptible; I: intermediate; R: resistant; settings: PA-042; Table S2
# PA-016, blaIMP = test: MIC / checkerboard with ATM; type: cell-based, P. aeruginosa; parameters: key to Susceptibility category: S: susceptible; I: intermediate; R: resistant; settings: PA-016; Table S2
# PA-025, blaNDM = test: MIC / checkerboard with ATM; type: cell-based, P. aeruginosa; parameters: key to Susceptibility category: S: susceptible; I: intermediate; R: resistant; settings: PA-025; Table S2
# PA-021, blaIMP = test: MIC / checkerboard with ATM; type: cell-based, P. aeruginosa; parameters: key to Susceptibility category: S: susceptible; I: intermediate; R: resistant; settings: PA-021; Table S2
# PA-029, blaIMP = test: MIC / checkerboard with ATM; type: cell-based, P. aeruginosa; parameters: key to Susceptibility category: S: susceptible; I: intermediate; R: resistant; settings: PA-029; Table S2
# PA-040, blaNDM = test: MIC / checkerboard with ATM; type: cell-based, P. aeruginosa; parameters: key to Susceptibility category: S: susceptible; I: intermediate; R: resistant; settings: PA-040; Table S2
# PA-035, blaGES = test: MIC / checkerboard with ATM; type: cell-based, P. aeruginosa; parameters: key to Susceptibility category: S: susceptible; I: intermediate; R: resistant; settings: PA-035, Table S2
# PA-036, blaNDM = test: MIC / checkerboard with ATM; type: cell-based, P. aeruginosa; parameters: key to Susceptibility category: S: susceptible; I: intermediate; R: resistant; settings: PA-036; Table S2
# PA-014, blaGES = test: MIC / checkerboard with ATM; type: cell-based, P. aeruginosa; parameters: key to Susceptibility category: S: susceptible; I: intermediate; R: resistant; settings: PA-014; Table S2
# [3] = Pseudomonas aeruginosa, read-out: MIC value
# T2 sequence (Q9F663 25-293, looked up, species assumed): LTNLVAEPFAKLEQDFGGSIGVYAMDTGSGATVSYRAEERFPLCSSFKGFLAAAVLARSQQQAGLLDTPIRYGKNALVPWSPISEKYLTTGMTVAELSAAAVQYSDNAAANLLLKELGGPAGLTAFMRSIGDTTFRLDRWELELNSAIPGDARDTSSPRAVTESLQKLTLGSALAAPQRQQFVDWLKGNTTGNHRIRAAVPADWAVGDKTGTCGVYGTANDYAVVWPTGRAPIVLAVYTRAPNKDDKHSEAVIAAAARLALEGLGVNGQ
# T3 sequence (Q6XEC0 23-265 limits assumed): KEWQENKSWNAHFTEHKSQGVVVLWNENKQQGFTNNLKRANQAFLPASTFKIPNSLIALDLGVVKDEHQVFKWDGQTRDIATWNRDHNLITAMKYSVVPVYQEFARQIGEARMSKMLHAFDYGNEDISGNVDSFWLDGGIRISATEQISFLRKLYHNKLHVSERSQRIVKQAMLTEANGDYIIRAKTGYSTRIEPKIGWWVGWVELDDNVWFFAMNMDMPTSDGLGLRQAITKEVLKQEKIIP
# T4 sequence (C7C422 29-270, looked up, species assumed): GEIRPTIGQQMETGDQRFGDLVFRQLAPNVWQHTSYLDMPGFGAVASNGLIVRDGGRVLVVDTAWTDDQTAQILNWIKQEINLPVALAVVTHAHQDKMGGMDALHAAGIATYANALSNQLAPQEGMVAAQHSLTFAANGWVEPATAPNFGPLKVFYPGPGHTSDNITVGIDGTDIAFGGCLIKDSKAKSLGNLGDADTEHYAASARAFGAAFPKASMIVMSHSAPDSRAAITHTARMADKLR
compound,measurement,setting,value
"CN1CCN(CCOc2cc(O)c3c(=O)c(OCCC4CCCC4)c(-c4ccc(F)c(F)c4)oc3c2)CC1 [Compound 14, 3-(2-Cyclopentylethoxy)-2-(3,4-difluorophenyl)-5-hydroxy-7-(2-(4-methylpiperazin-1-yl)ethoxy)-4H-chromen-4-one]",FD (fold decrease in the MIC of ATM upon combination with the compound),[1],2
same,MIC,[1],> 256 µg/mL
same,IC50,AmpC,> 50 µM
same,IC50,VIM-2,> 100 µM
same,IC50,KPC-2,> 50 µM
same,IC50,OXA-48,> 100 µM
same,EPi (inhibition of efflux pump activity),[2],- ^f
same,IC50,NDM-1,> 50 µM
"CN1CCCC1CCOc1cc(O)c2c(=O)c(OCCC(C)(C)C)c(-c3ccc(F)c(F)c3)oc2c1 (stereo not drawn) [Compound 12, 2-(3,4-Difluorophenyl)-3-(3,3-dimethylbutoxy)-5-hydroxy-7-(2-(1-methylpyrrolidin-2-yl)ethoxy)-4H-chromen-4-one]",FD (fold decrease in the MIC of ATM upon combination with the compound),[1],2
same,MIC,[1],> 256 µg/mL
same,IC50,AmpC,> 50 µM
same,IC50,VIM-2,> 100 µM
same,IC50,KPC-2,> 50 µM
same,IC50,OXA-48,> 100 µM
same,EPi (inhibition of efflux pump activity),[2],- ^f
same,IC50,NDM-1,> 50 µM
O=c1c(OCCC2CCCCC2)c(-c2ccc(F)c(F)c2)oc2cc(O)cc(O)c12 [Compound 3],FD (fold decrease in the MIC of ATM upon combination with the compound),[1],4
same,MIC,[1],> 256 µg/mL
same,IC50,AmpC,15.3 ± 1.5 µM
same,EPi (inhibition of efflux pump activity),[2],↑↑↑ ^e
"CC(C)(C)CCOc1c(-c2ccc(F)c(F)c2)oc2cc(OCC(=O)N3CCCCC3)cc(O)c2c1=O [Compound 10, 2-(3,4-Difluorophenyl)-3-(3,3-dimethylbutoxy)-5-hydroxy-7-(2-oxo-2-(piperidin-1-yl)ethoxy)-4H-chromen-4-one]",FD (fold decrease in the MIC of ATM upon combination with the compound),[1],1
same,MIC,[1],> 256 µg/mL
same,IC50,AmpC,> 50 µM
same,IC50,VIM-2,> 100 µM
same,IC50,KPC-2,> 50 µM
same,IC50,OXA-48,> 50 µM
same,EPi (inhibition of efflux pump activity),[2],- ^f
same,IC50,NDM-1,> 50 µM
O=c1c(OCCC2CCCC2)c(-c2ccc(F)c(F)c2)oc2cc(O)cc(O)c12 [Compound 2],FD (fold decrease in the MIC of ATM upon combination with the compound),[1],2
same,MIC,[1],> 256 µg/mL
same,IC50,AmpC,21 ± 2.1 µM
same,EPi (inhibition of efflux pump activity),[2],↑↑↑ ^e
"C[C@@H](O)[C@H]1C(=O)N2C(C(=O)O)=C(S[C@@H]3CN[C@H](C(=O)N(C)C)C3)[C@H](C)[C@H]12 [MEM, meropenem, reference compound]",Susceptibility category,[1]; Table S2,R
same,Susceptibility category,"PA-027, blaIMP",R
same,Susceptibility category,"PA-033, blaNDM",R
same,Susceptibility category,"PA-034, blaNDM",R
same,Susceptibility category,"PA-009, blaGES",R
same,Susceptibility category,"PA-039, blaNDM",R
same,Susceptibility category,"PA-041, blaNDM",R
same,Susceptibility category,"PA-002, blaIMP",R
same,MIC,"PA-002, blaIMP; [3]",> 32 µg/mL
same,Susceptibility category,"PA-044, blaNDM",R
same,Susceptibility category,"PA-038, blaNDM",R
same,Susceptibility category,"PA-031, blaNDM",R
same,Susceptibility category,"PA-003, blaVIM",R
same,MIC,"PA-003, blaVIM; [3]",16 µg/mL
same,Susceptibility category,"PA-032, blaIMP",R
same,MIC,"PA-032, blaIMP; [3]",32 µg/mL
same,Susceptibility category,"PA-030, blaIMP",R
same,Susceptibility category,"PA-028, blaNDM",R
same,Susceptibility category,"PA-037, blaIMP/NDM",R
same,Susceptibility category,"PA-026, blaNDM",S
same,MIC,"PA-026, blaNDM; [3]",≤ 0.25 µg/mL
same,Susceptibility category,"PA-042, blaIMP/NDM",R
same,Susceptibility category,"PA-016, blaIMP",R
same,Susceptibility category,"PA-025, blaNDM",R
same,Susceptibility category,"PA-021, blaIMP",R
same,Susceptibility category,"PA-029, blaIMP",R
same,Susceptibility category,"PA-040, blaNDM",R
same,Susceptibility category,"PA-035, blaGES",R
same,MIC,"PA-035, blaGES; [3]",16 µg/mL
same,Susceptibility category,"PA-036, blaNDM",R
same,Susceptibility category,"PA-014, blaGES",R
